The text below walks through data of PMC10828660 (Heliyon, 2024).

In assay [1] the target is VEGFR-2 (Homo sapiens, UniProt P35968). Briefly: biochemical.
Assay [2] has as its system MCF-7. In words: MTT anti-proliferative assay against MCF-7. Type of assay: cell-based. Particulars: Homo sapiens, MCF7, read-out: MCF-7 IC50. On the technique in general: Tetrazolium assays rely on reduction of a dye to a coloured formazan, in cell work by metabolically active cells.
In assay [3] the test system is HepG2. Briefly: MTT anti-proliferative assay against HepG2. Type of assay: cell-based. The note with it: Homo sapiens, HepG2, read-out: HepG2 IC50.
Assay [4] concerns MCF-7 cells. Briefly: Wound healing. Format: cell-based, Human.
Assay [5] deals with MCF-7 cells. Briefly: Annexin-V/propidium iodide apoptosis analysis. Type of assay: cell-based, Human.
The subject of assay [6] is Vero cells. In words: In vitro safety assay on normal Vero cells. Format: cell-based.
Assay [7] relates to MCF-7 cells. Briefly: Cell cycle analysis by flow cytometry. Type of assay: cell-based, Human.

Chain of VEGFR-2 (P35968 20-1356): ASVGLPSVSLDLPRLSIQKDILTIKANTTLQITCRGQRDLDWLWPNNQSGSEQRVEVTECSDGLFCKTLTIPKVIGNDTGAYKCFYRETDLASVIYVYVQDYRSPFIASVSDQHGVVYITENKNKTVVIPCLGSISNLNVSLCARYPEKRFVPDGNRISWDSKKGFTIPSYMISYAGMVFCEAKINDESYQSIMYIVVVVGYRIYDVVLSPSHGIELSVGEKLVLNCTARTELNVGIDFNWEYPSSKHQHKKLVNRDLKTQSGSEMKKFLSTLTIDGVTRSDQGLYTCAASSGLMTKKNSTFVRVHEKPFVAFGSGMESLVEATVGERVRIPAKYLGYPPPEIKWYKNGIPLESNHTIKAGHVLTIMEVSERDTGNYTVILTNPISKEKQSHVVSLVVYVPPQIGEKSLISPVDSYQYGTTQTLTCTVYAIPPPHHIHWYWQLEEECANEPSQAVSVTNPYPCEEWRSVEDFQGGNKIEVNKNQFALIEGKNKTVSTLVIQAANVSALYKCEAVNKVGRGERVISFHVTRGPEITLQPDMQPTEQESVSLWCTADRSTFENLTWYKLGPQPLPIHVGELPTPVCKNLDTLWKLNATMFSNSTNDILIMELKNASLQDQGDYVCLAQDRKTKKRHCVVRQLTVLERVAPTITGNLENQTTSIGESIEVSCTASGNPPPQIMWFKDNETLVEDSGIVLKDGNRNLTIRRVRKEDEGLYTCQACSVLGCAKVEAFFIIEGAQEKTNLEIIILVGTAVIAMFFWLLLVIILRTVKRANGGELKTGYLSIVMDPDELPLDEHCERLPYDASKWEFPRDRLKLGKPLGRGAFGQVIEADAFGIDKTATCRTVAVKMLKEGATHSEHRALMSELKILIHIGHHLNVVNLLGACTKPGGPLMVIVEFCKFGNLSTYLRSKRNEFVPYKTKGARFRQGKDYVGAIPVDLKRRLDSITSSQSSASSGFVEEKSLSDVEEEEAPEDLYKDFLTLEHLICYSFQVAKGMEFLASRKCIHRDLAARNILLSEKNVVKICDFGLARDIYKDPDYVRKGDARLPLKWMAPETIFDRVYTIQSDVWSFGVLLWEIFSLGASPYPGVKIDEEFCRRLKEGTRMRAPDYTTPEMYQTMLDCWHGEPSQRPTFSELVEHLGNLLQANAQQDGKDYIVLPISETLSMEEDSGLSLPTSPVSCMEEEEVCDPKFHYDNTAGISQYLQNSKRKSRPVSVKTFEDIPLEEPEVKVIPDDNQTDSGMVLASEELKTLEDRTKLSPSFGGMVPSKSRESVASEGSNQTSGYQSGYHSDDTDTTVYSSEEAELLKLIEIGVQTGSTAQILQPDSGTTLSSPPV

In general, IC50 refers to the concentration that inhibits the measured activity by half. `O=C(CN1C(=O)SC(=Cc2ccc(Cl)cc2Cl)C1=O)Nc1ccc(C(=O)Nc2cccc(Cl)c2)cc1` [Compound 21, N-(3-chlorophenyl)-4-(2-(5-(2,4-dichlorobenzylidene)-2,4-dioxothiazolidin-3-yl)acetamido)benzamide]: the IC50 in assay [1] was determined as 1660 ± 70 nM; in assay [2], 680 ± 10 nM; in assay [3] it was 840 ± 10 nM.

With `O=C(CN1C(=O)SC(=Cc2ccc(Cl)cc2Cl)C1=O)Nc1ccc(C(=O)NNC(=O)c2cccc(Cl)c2)cc1` [Compound 23, N-(4-(2-(3-chlorobenzoyl)hydrazine-1-carbonyl)phenyl)-2-(5-(2,4-dichlorobenzylidene)-2,4-dioxothiazolidin-3-yl)acetamide], the half-inhibitory concentration (IC50) came out at 328 ± 14 nM in assay [1], 950 ± 10 nM in assay [2] and 1180 ± 10 nM in assay [3].

As to `O=C(CN1C(=O)SC(=Cc2ccccc2Cl)C1=O)Nc1ccc(C(=O)NNC(=O)c2ccccc2O)cc1` [Compound 20, 2-(5-(2-Chlorobenzylidene)-2,4-dioxothiazolidin-3-yl)-N-(4-(2-(2-hydroxybenzoyl) hydrazine-1-carbonyl)phenyl)acetamide], the IC50 is 210 ± 9 nM in assay [1], 660 ± 30 nM in assay [2] and 1140 ± 30 nM in assay [3].

As to `O=C(CN1C(=O)SC(=Cc2ccc(Cl)cc2Cl)C1=O)Nc1ccc(C(=O)NNC(=O)c2ccccc2)cc1` [Compound 22, N-(4-(2-benzoylhydrazine-1-carbonyl)phenyl)-2-(5-(2,4-dichlorobenzylidene)-2,4-dioxothiazolidin-3-yl)acetamide], the IC50 in assay [1] turned out to be 79 ± 3 nM; in assay [2], 1210 ± 40 nM; in assay [3], 2040 ± 60 nM. In assay [4] (MCF-7, 48 h, untreated 16.58), this molecule displayed an RM of 6.16 um. Further, the Wound closure in assay [4] (MCF-7, 48 h, untreated 81.62) is reported as 30.20 % um^2. The molecule further returned an Area difference in assay [4] (MCF-7, 48 h, untreated 795.83) of 295.83%. In addition, in assay [4] (MCF-7, after 48 h, untreated 81.62 %), the “Reduction in scratch width” value turned out to be 30.20%. In addition, the “Scratch width at 48 h” value in assay [4] (MCF-7, untreated 178.24) is 682.93. For the same molecule, the “Scratch area at 48 h” value in assay [4] (MCF-7, untreated 179.17) was determined as 683.83. Further, the “Scratch width at 24 h” value in assay [4] (MCF-7, untreated 644.43) stood at 904.16. For the same molecule, in assay [4] (MCF-7, untreated 645.50), the “Scratch area at 24 h” value was found to be 905.17. Also, the “Scratch width at 0 h” value in assay [4] (MCF-7, untreated 974.11) is listed as 978.78. Moreover, the “Scratch area at 0 h” value in assay [4] (MCF-7, untreated 975.00) stood at 979.67. In assay [5] (MCF-7, 1.21 μM), the “Increase of early apoptosis compared to untreated cells” value was “about 76 times”. Moreover, the “Increase of late apoptosis compared to untreated cells” value in assay [5] (MCF-7, 1.21 μM) is “about 90 fold”. Moreover, the “Apoptosis Late (Right Top)” value in assay [5] (MCF-7, 1.21 μM, 72 h, control 0.15) stood at 13.53%. In assay [5] (MCF-7, 1.21 μM, 72 h, control 0.29), the “Apoptosis Early (Right Bottom)” value turned out to be 22.15%. For the same molecule, the “Necrosis (Left Top)” value in assay [5] (MCF-7, 72 h treatment, control 2.22) was 5.34. The “Selectivity index HepG2” value in assay [6] (IC50 Vero divided by IC50 HepG2) is recorded as 1.95. Further, the “Selectivity index MCF-7” value in assay [6] (IC50 Vero divided by IC50 MCF-7) is given as 3.28. Moreover, in assay [7] (MCF-7, 1.21 μM), the “Cell cycle arrest phase” value was “S phase”. Besides, the “Cell cycle distribution G2/M” value in assay [7] (MCF-7, 1.21 μM for 72 h, control 16.35) came out at 13.77%. Further, the “Cell cycle distribution S” value in assay [7] (MCF-7, 1.21 μM for 72 h, control 24.61) was found to be 33.84%. Besides, the “Cell cycle distribution G0-G1” value in assay [7] (MCF-7, 1.21 μM for 72 h, control 59.04) worked out at 52.39%.

In the case of `O=C(CN1C(=O)SC(=Cc2ccccc2Cl)C1=O)Nc1ccc(C(=O)NNc2ccccc2)cc1` [Compound 18, 2-(5-(2-Chlorobenzylidene)-2,4-dioxothiazolidin-3-yl)-N-(4-(2-phenylhydrazine-1-carbonyl)phenyl)acetamide], the IC50 in assay [1] came to 2660 ± 112 nM; in assay [2], 1760 ± 20 nM; in assay [3] it was 4700 ± 100 nM.

For the molecule `O=C(CN1C(=O)SC(=Cc2ccc(Cl)cc2Cl)C1=O)Nc1ccc(C(=O)NNC(=O)c2ccccc2O)cc1` [Compound 24, 2-(5-(2,4-Dichlorobenzylidene)-2,4-dioxothiazolidin-3-yl)-N-(4-(2-(2-hydroxybenzoyl) hydrazine-1-carbonyl)phenyl)acetamide], the half-inhibitory concentration (IC50) in assay [1] was found to be 203 ± 9 nM; in assay [2], 650 ± 10 nM; in assay [3], 600 ± 20 nM.

As to `O=C(CN1C(=O)SC(=Cc2ccccc2Cl)C1=O)Nc1ccc(C(=O)NNC(=O)c2cccc(Cl)c2)cc1` [Compound 19, N-(4-(2-(3-chlorobenzoyl)hydrazine-1-carbonyl)phenyl)-2-(5-(2-chlorobenzylidene)-2,4dioxothiazolidin-3-yl)acetamide], the IC50 in assay [1] stood at 323 ± 14 nM; in assay [2] it was 2290 ± 190 nM; in assay [3], 3060 ± 20 nM.
